The values below come from patent publication US9266853B2, “Orally available viridiofungin derivative possessing anti-HCV activity” (Chugai Seiyaku Kabushiki Kaisha, priority 2012, dated 2016).

Data set [1] can be described thus: Cytotoxicity test (WST-8). As to conditions: human, firefly luciferase HCV replicon cells (Huh3-1); Huh3-1 replicon cells, 3 days culture, Cell counting kit-8; read-out: Cytotoxicity WST8 (IC50). Format: cell-based. On the procedure:
The firefly luciferase HCV replicon cells (Huh3-1) were suspended in Dulbecco's MEM (Gibco cat. No. 10,569-010) containing 5% fetal bovine serum (Hyclone cat. No. SH30071.03), seeded at 4500 cells/90 μL/well in 96-well plates, and cultured overnight in 5% CO2 at 37° C. After 20 hours, 10 μL per well of compounds prepared at a concentration 10 times the final concentration were added, and they were further cultured for 3 days.
Two series of assay plates, one series of white plates and another series of clear plates, were prepared and used for the assay.
Clear plates were used for a cytotoxicity test (WST-8). Cytotoxicity was measured using Cell counting kit-8 (Dojindo cat. No. CK04). More specifically, 100 μL of Cell counting kit-8 diluted 10-fold from the stock solution with PBS (SIGMA cat. No. D8537) was added to each well in the aforementioned clear plates from which medium was removed and the plates were incubated at 37° C. for 30 to 60 minutes. Absorbance was measured at a wavelength of 460 nm and a control wavelength of 590 nm by a plate reader (EnVision™ 2103 Multilabel Reader). All values were expressed as differences from the background which was measured with neither cells nor drug and IC50 (50% inhibitory concentration) values of drugs were calculated based on the value when no drug was added defined as 0% inhibition.
Background: Formazan colour is commonly taken as a measure of viable cells.

The next data set concerns the target CYP3A4 (Homo sapiens (Human), UniProt P08684). The experiment in a line: biochemical. Format: in vitro ADME. As to conditions: for IC50: human liver microsomes, midazolam 0.5 μmol/L; for CYP Inhibition Time Dependent (TDI) (untreated/Pre-incubation), CYP3A4: microsomes. On the procedure:
(§1) <Incubation Mixture> • 100 mM phosphate buffer (pH 7.4) • 0.1 mg/mL of pooled human liver microsomes (male and female mixture, a pool of 50 donors) <NADPH Aqueous Solution> • 10 mM NADPH (final concentration 1 mM NADPH) <Measurement of Metabolite>
Warfarin was used as internal standard (IS).
To a 96 deep well plate was added 2.5 μL, of the test substance solution (×200 concentration), 442.5 μL of Incubation Mixture, and 5 μL of the substrate solution, and the solution was mixed and warmed to 37° C. for 5 minutes. To this incubation solution 50 μL of 10 mM NADPH was added to start the reaction, and incubated at 37° C. for 5 minutes. After the incubation, 100 μL of the Incubation Mixture was removed, added to 150 μL of isopropanol containing IS and mixed. […] The filtrate was used for LC-MS/MS analysis.
To a 96 deep well plate was added 2.5 μL of the test substance solution (×200 concentration), and 442.5 μL of Incubation Mixture, and the solution was mixed and warmed to 37° C. for 5 minutes. To this incubation solution 50 μL of 10 mM NADPH was added and preincubated at 37° C. for 30 minutes. […] After the reaction, 100 μL of the Incubation Mixture was removed, added to 150 μL of isopropanol containing IS and mixed. […] The filtrate was used for LC-MS/MS analysis.
(§2) Based on the metabolite production of the DMSO control group defined as 100, percent inhibitions of the metabolite production in the test substance group were determined, and inhibition curves were plotted at 5 concentrations. The test substance concentration showing 50% inhibition (IC50) was determined from the fitting curve of the inhibition curve.
A general note: Microsomes from liver hold many membrane-bound enzymes, among them those of drug oxidation.

Data set [2] has as its system firefly luciferase HCV replicon cells (Huh3-1). The experiment in a line: Replicon assay (firefly luciferase HCV replicon cells). Format: cell-based, Hepatitis C virus. As to conditions: for IC50: Hepatitis C virus, 72 h, Huh3-1 replicon cells, 3 days culture, luciferase readout, read-out: Anti-replicon Activity (IC50); for IC50 of antireplicon activity converted to: unit converted assuming liver specific gravity 1 g=1 mL (FIGS. 1 to 3). In general terms: Replicon systems follow genome replication, usually without infectious particles.
Text: As a reporter gene, for example, a gene into which a luciferase gene derived from a firefly is introduced can be used. Specifically, according to the method of Krieger et al. (N. Krieger et al., J. Virology: 75, 4614-24, 2001), a firefly luciferase gene is introduced, in a form fused with a neomycin-resistant gene, immediately downstream of an internal ribosome entry site (IRES) of the HCV gene. After synthesizing the RNA in vitro, it is introduced into suitable cells by, for example, electroporation to obtain firefly luciferase HCV replicon cells. These cells are seeded in wells of 96-well plates, to which a diluted test substance is added, and cultured for several days. The substrate is then added, and the luminescence is measured with a plate reader.
According to the method of Krieger et al. (N. Krieger et al., J. Virology: 75, 4614-24, 2001), a firefly luciferase gene was introduced, in a form fused with a neomycin-resistant gene, immediately downstream of an internal ribosome entry site (TRES) of the HCV gene. After synthesizing the RNA in vitro, it was introduced into Huh7 cells by electroporation and the cells were isolated as G418-resistant clones.
After culturing, the white plates were used for the replicon assay with Steady-Glo Luciferase Assay System (Promega cat. No. E2520). More specifically, 100 μL per well of the reagent was added, it was mixed 3-4 times by pipetting and allowed to stand for 5 minutes, and subsequently the luminescence was measured with a plate reader (EnVision™ 2103 Multilabel Reader).

Another data set addresses CYP2C9 (Homo sapiens (Human), UniProt P11712). As to the kind of experiment: biochemical. As to conditions: for IC50: human liver microsomes, diclofenac 0.2 μmol/L; for TDI Ratio, CYP2C9: microsomes. On the procedure: Tests were carried out according to the following experiment method.
as §1
After incubation, the concentrations of the produced metabolites were measured using LC-MS/MS (API4000 or 5500QTRAP). Warfarin was used as internal standard (IS). The concentration was calculated using a standard curve created using a metabolite standard solution.
To a 96 deep well plate was added 2.5 μL, of the test substance solution (×200 concentration), 442.5 μL of Incubation Mixture, and 5 μL of the substrate solution, and the solution was mixed and warmed to 37° C. for 5 minutes. To this incubation solution 50 μL of 10 mM NADPH was added to start the reaction, and incubated at 37° C. for 5 minutes. After the incubation, 100 μL of the Incubation Mixture was removed, added to 150 μL of isopropanol containing IS and mixed. This mixture was transferred onto a multi-screen filter, centrifuged at 500×g at 4° C. for 10 minutes. The filtrate was used for LC-MS/MS analysis.
To a 96 deep well plate was added 2.5 μL of the test substance solution (×200 concentration), and 442.5 μL of Incubation Mixture, and the solution was mixed and warmed to 37° C. for 5 minutes. To this incubation solution 50 μL of 10 mM NADPH was added and preincubated at 37° C. for 30 minutes. After the preincubation, 5 μL of the substrate solution was added and the solution was mixed and further incubated at 37° C. for 5 minutes for the reaction. After the reaction, 100 μL of the Incubation Mixture was removed, added to 150 μL of isopropanol containing IS and mixed. This mixture was transferred onto a multi-screen filter, centrifuged at 500×g at 4° C. for 10 minutes. The filtrate was used for LC-MS/MS analysis.
as §2
Time dependent inhibition (TDI) was calculated as a ratio of dividing IC50 of the sample without preincubation treatment by the IC50 value measured after the preincubation treatment.

Data set [3] in a line: Rat PK test (liver concentrations of active metabolites after oral prodrug). It is filed as in vivo, Wistar rat. On the procedure:
The test was carried out according to the following protocol. • Animal: […] (Method of Analysis) Using LC-MS/MS (API 4000), standard curves for standard compounds were prepared, and the concentrations of the active metabolites No. 5514403 and No. 5526064 at the data points were calculated.

[4] abbreviates: CYP3A4 (IC50 μM) Pre-incubation, 30 min preincubation with NADPH.
Where [5] appears, read: CYP3A4 (IC50 μM) untreated, without preincubation.
Setting [6] is: CYP2C9 (IC50 μM) Pre-incubation, 30 min preincubation with NADPH.
Where [7] appears, read: CYP2C9 (IC50 μM) untreated, without preincubation.
Where [8] appears, read: rat liver, 24 hours after dosing, prodrug p.o. 30 mg/kg once a day, 7 days.
[9] abbreviates: rat liver, prodrug p.o. 30 mg/kg once a day, 7 days.

Some results are limits rather than exact numbers.

Chain of CYP3A4 (P08684 whole entry): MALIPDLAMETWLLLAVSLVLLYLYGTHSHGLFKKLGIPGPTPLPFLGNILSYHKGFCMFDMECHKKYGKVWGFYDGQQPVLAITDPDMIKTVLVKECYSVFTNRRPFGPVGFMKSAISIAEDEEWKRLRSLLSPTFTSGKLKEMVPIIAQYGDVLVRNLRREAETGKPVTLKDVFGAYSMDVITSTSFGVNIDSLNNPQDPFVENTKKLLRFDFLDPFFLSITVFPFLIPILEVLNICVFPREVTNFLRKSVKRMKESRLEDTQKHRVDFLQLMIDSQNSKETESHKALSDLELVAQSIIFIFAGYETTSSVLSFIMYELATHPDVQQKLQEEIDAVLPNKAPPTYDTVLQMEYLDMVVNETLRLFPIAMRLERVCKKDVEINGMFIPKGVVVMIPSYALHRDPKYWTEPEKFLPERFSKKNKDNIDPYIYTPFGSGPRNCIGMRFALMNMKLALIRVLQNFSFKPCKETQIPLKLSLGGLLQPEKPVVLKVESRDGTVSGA
Chain of CYP2C9 (P11712 whole entry): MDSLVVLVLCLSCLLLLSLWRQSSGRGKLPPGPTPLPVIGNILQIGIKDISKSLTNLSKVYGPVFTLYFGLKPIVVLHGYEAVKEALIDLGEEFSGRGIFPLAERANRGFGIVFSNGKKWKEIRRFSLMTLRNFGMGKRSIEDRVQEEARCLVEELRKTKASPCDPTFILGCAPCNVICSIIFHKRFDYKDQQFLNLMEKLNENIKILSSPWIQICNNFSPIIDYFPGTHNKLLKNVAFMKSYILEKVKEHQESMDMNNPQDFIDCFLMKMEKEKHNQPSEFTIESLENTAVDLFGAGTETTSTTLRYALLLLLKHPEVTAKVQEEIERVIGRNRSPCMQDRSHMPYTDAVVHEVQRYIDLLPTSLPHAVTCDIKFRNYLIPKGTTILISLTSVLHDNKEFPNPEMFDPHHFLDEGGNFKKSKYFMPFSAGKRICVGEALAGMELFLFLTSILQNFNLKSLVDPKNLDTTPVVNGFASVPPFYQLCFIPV

Consider `CCCCCCCC(F)(F)CCCCCC/C=C/[C@H](C(=O)N[C@@H](Cc1ccc(OCCCC)cc1)C(=O)OC)[C@@](O)(CCOC)C(=O)O` [No. 5514403, (E)-(2S,3S)-3-[(S)-2-(4-butoxy-phenyl)-1-methoxycarbonyl-ethylcarbamoyl]-12,12-difluoro-2-hydroxy-2-(2-methoxy-ethyl)-nonadec-4-enoic acid], for which the IC50 at 3 days in data set [1] was more than 1 µM. Also, the IC50 at CYP3A4 (setting [4]) turned out to be 11.9 µM; against CYP3A4 (setting [5]) it was 23.8 µM; in data set [2] it was 0.0006 µM; on CYP2C9 (setting [6]) it was 19.6 µM; against CYP2C9 (setting [7]), 7.7 µM. The “CYP Inhibition Time Dependent (TDI) (untreated/Pre-incubation), CYP3A4” value at CYP3A4 came to 1.98. The “IC50 of antireplicon activity converted to” value in data set [2] was 0.48 ng/g. In addition, the “TDI Ratio, CYP2C9” value at CYP2C9 is 0.39.

`CCCCCCCC(F)(F)CCCCCC/C=C/[C@H](C(=O)N[C@@H](Cc1ccc(OCCCC)cc1)C(=O)O)[C@@](O)(CCOC)C(=O)O` [No. 5526064, (E)-(2S,3S)-3-[(S)-2-(4-butoxy-phenyl)-1-carboxy-ethylcarbamoyl]-12,12-difluoro-2-hydroxy-2-(2-methoxy-ethyl)-nonadec-4-enoic acid]: the IC50 at 3 days in data set [1] is more than 1 µM. The IC50 is 11.8 µM at CYP3A4 (setting [4]); 16.2 µM at CYP3A4 (setting [5]); 0.00215 µM in data set [2]; 24.4 µM on CYP2C9 (setting [6]); 12.5 µM against CYP2C9 (setting [7]). Moreover, the “CYP Inhibition Time Dependent (TDI) (untreated/Pre-incubation), CYP3A4” value on CYP3A4 was 1.37. Besides, in data set [2], the “IC50 of antireplicon activity converted to” value is 1.44 ng/g. Also, the “TDI Ratio, CYP2C9” value at CYP2C9 is on record as 0.51.

Turning to `CCCCCCCC(F)(F)CCCCCC/C=C/[C@H](C(=O)N[C@@H](Cc1ccc(OCCCC)cc1)C(=O)OC)[C@@](O)(CCOC)C(=O)OCc1oc(=O)oc1C` [No. 6808755, (5-methyl-2-oxo-[1,3]dioxol-4-yl)methyl (E)-(2S,3S)-3-[(S)-2-(4-butoxy-phenyl)-1-methoxycarbonyl-ethylcarbamoyl]-12,12-difluoro-2-hydroxy-2-(2-methoxy-ethyl)-nonadec-4-enoate], in data set [3] (setting [8]), the “concentration of active compound No. 5514403 in the liver” value is on record as not below 100 ng/g and the “concentration of active metabolite No. 5526064 in the liver” value is on record as not below 100 ng/g. Further, in data set [3] (rat, p.o., in comparison with No. 6809532 and No. 6811559), the “exposure of the liver to the active drugs” value is reported as “significantly higher exposure of the liver to the active drugs”.

`CCCCCCCC(F)(F)CCCCCC/C=C/[C@H](C(=O)N[C@@H](Cc1ccc(OCCCC)cc1)C(=O)OC)[C@@](O)(CCOC)C(=O)OC` [No. 6809532, Methyl (E)-(2S,3S)-3-[(S)-2-(4-butoxy-phenyl)-1-methoxycarbonyl-ethylcarbamoyl]-12,12-difluoro-2-hydroxy-2-(2-methoxy-ethyl)-nonadec-4-enoate, reference compound]: the “presence of the active compound No. 5514403 in the liver” value in data set [3] (setting [9]) is listed as “hardly detected”.

For `CCCCCCCC(F)(F)CCCCCC/C=C/[C@H](C(=O)N[C@@H](Cc1ccc(OCCCC)cc1)C(=O)OC)[C@@](O)(CCOC)C(=O)OCC(=O)OC` [No. 6811559, Methoxycarbonylmethyl (E)-(2S,3S)-3-[(S)-2-(4-butoxy-phenyl)-1-methoxycarbonyl-ethylcarbamoyl]-12,12-difluoro-2-hydroxy-2-(2-methoxy-ethyl)-nonadec-4-enoate, reference compound], the “presence of the active compound No. 5514403 in the liver” value in data set [3] (setting [9]) is listed as “hardly detected”.

As usually defined, the IC50 is the concentration that inhibits the measured activity by half.
